Laboratory results: patent US8247224B2, “Recombinant construct for detection of halogenated aromatic hydrocarbons” (National Health Research Institutes, priority 2010, dated 2012)

Target: T1, AhR (Rattus norvegicus, UniProt P41738)
T1 construct: introducing a recombinant construct as described above into a host cell that expresses AhR; endogenous in cells; host or cells: H-4-II-E cells infected with the AdEasy-4XDRE-TATA-Luc reporter adenovirus
T1 sequence (P41738 10-853): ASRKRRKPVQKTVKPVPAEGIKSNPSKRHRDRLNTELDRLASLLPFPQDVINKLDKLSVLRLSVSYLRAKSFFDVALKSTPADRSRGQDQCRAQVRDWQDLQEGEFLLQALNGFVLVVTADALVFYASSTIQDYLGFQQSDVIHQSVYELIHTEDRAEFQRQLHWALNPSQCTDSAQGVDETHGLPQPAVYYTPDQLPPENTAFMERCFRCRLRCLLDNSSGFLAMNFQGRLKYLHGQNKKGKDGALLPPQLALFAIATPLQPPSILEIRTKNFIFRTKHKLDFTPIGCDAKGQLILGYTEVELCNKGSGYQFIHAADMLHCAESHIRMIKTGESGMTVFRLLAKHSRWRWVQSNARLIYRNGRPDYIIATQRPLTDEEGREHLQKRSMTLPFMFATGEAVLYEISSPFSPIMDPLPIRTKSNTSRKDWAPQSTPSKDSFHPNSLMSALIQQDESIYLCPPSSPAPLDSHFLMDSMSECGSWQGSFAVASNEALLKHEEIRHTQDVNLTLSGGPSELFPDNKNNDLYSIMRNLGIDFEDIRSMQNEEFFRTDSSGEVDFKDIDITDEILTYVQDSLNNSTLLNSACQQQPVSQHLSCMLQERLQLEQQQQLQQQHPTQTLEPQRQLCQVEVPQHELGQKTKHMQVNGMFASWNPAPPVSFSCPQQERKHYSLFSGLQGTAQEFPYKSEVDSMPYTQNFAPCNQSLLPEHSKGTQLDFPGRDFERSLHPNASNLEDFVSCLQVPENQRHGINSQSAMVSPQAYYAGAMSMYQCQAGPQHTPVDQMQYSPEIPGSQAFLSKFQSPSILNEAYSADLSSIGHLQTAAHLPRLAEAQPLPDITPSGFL
Assay: Luciferase activity of H-4-II-E cells infected with AdEasy-4XDRE-TATA-Luc and treated with TCDD
Format: cell-based
Details: AdEasy-4XDRE-TATA-Luc at MOI of one particles/cell for 16 hours, TCDD for 24 hours, luciferase activity (RLU), FIG. 6
Excerpt: As known in the art, the action of the HAH compounds is mediated through a cytosolic transcription factor, called the aryl hydrocarbon receptor (AhR). After binding of the ligand (HAH compounds), the resulted AhR complex binds to specific DNA sequences i.e. DREs, and then results in transcriptional activation of the adjacent responsive genes. The consensus sequence of the DREs is 5′-TNGCGTG-3′ where N means any nucleotide of A, T, G and C.
H-4-II-E cells (Bioresources Collection and Research Center (BCRC), Food Industry Research and Development Institute (FIRDI), Hsinchu, Taiwan) were seeded on 96-well plates at a density of 2×10^4 cells/well in culture medium (80% Minimum essential medium Eagle with 0.1 mM non-essential amino acids, Earle's BSS, 10% fetal bovine serum and 10% calf serum) and cultured overnight in a humidified atmosphere containing 5% CO2 at 37° C. Subsequently, the cells were incubated with AdEasy-4XDRE-TATA-Luc as obtained in Example 1 at a multiplicity of infection (MOI) of one particles/cell for 16 hours. […] Luciferase activity was measured by Luciferase Assay System (Promega, Madison, Wis., USA) according to the standard protocol as provided using the programmed microplate luminometer MicroLumatPlus LB96V (EG&G Berthold, Germany). The luciferase activity was expressed as relative light units (RLU).

Clc1cc2c(cc1Cl)Oc1cc(Cl)c(Cl)cc1O2 [TCDD, 2,3,7,8-tetrachlorodibenzo-p-dioxin]
concentrations between which the luciferase response shows a steep slope: 10^−12 to 10^−10 M | detection limit: around 10^−12 M
